Experimental data published in patent publication US4174407A, “Antiviral agent” (Sumitomo Chemical Company, Limited, priority 1978, dated 1979).
Converted amounts (≈) assume the structure as drawn. Where a name gives a salt, the structure may show the parent alone. Read-outs that look alike come from different tables or passages of the source.

What was measured:
[1] = system: herpes simplex virus type 1 (HF strain); assay: Effects on herpeskeratitis, eye lotion in rabbits (cure period and toxicity); assay type: in vivo; details: 0.5% eye lotion in 1.4% polyvinyl alcohol, every two hours, five times a day, 7 days; rabbit eye
Procedure: (§1) Therapeutic effects were determined by using two experimental infections as follows.
The corneal epithelium of each eye of rabbit was anesthetized and scratched, then each eye was infected with herpes simplex virus type 1 (HF strain). One of each infected eyes was used for treatment with the compound A and the other was used for viral control. One half % eye lotion of the compound A in 1.4% polyvinyl alcohol was applied every two hours, five times a day during 7 days 12 hr. after virus infection. Each eye was daily examined and scored the lesion on the conjunctiva, cornea and the iris for 7 days. In this score 0 means normal and 4 means maximal severity. The eyes scratched but not infected with virus were similarly treated with compound A in parallel as toxicity control.

herpes virus = assay: Antiviral activities on herpes virus (general statement)
Influenza Ao PR/8 = assay type: in vivo, ddY male mice; details: 7 days after infection, control 4.8
[2] = Cytotoxicity in HeLa cells by microscopic examination (MCC); details: human
in vivo = details: mouse
influenza virus = assay: Antiviral activities on influenza virus (general statement)
[3] = Cytotoxicity in KB cells by microscopic examination (MCC); details: human
Newcastle disease virus = details: Aigami et al., J. Med. Chem. 19, 536, 1976; cited from earlier work
[4] = system: herpes simplex virus type 1 HF strain; assay: Effects on herpesencephalitis, intracerebrally infected mice; assay type: in vivo; details: for Survival ratio (no. of survivors/no. of total mice): 21st day, control 0/10
Procedure: as §1
Mice were anesthetized with ether and were infected intracerabrally (i.c.) with 30 LD50 of herpes simplex virus type 1 HF strain. Infected mice were treated with various therapeutic schedules. The antiviral effects of the compound A was determined by comparing the number of survivors at 3 weeks after viral infection and the mean survival days of the drug-treatedand placebo-treated animals.
(a) Dose of administration
(b) Schedule of administration of each route was as follows, i.c. (intracerebrally): single administration simultaneously with virus infection p.o (per os): twice administration per day during 8.5 days from 4 hr. after virus infection s.c. (subcutaneously): twice administration per day during 8.5 days from 4 hr. after virus infection i.v. (intravenously): single administration at 3 hr. after virus infection
(c) The animals were examined for 21 days and deaths occuring were recorded.
(d) Survivors at 21st day.

[5] = system: herpes simplex type 1 (HF strain); assay: Tube dilution method, virus-induced cytopathic effect in tissue culture (antiviral MIC); assay type: cell-based; details: for MIC: read-out: Minimum virus growth inhibition concentration (MIC)
DNA virus = details: general knowledge; cited from earlier work
[6] = host cells KB, 1000 TCD50, 72 hr, 37° C.

Question: What does the source list for `NC12CCCC3CC(CCC31)C2` (centres unmarked) [Compound A, 3-Amino-4-homoisotwistane hydrochloride]?
Answer: cure period as compared with control [1]: did not prolong the cure period as compared with control; antiviral effects on herpes virus and so on, compared with tromantadine (herpes virus; comparison with tromantadine): much superior to those of tromantadine; antiviral activities on herpes virus (herpes virus; general statement): very strong antiviral activities; Lung Lesion Score (Influenza Ao PR/8; 7.5 mg/kg s.c., no significance mark): 4.6; Lung Lesion Score (Influenza Ao PR/8; 15 mg/kg s.c., * P<0.05 (Student's t test)): 4.0; Lung Lesion Score (Influenza Ao PR/8; 30 mg/kg s.c., * P<0.05 (Student's t test)): 4.2; MCC at 72 h [2]: 50 µg/mL; LD50 (in vivo; iv): 32 mg/kg; LD50 (in vivo; po): 300 mg/kg; antiviral activities on influenza virus (influenza virus): very strong antiviral activities; MCC at 72 h [3]: 50 µg/mL; antiviral effects on Newcastle disease virus (Newcastle disease virus): antiviral effects on Newcastle disease virus; Survival ratio (no. of survivors/no. of total mice) ([4]; 5 mg/kg i.c., single, simultaneously with virus infection): 7/10; Mean no. of survival days ([4]; 5 mg/kg i.c., single, simultaneously with virus infection, control 5.6): 7.2 days; Survival ratio (no. of survivors/no. of total mice) ([4]; 10 mg/kg i.v., single at 3 hr. after infection): 2/10; Mean no. of survival days ([4]; 10 mg/kg i.v., single at 3 hr. after infection, control 6.2): 8.0 days; Survival ratio (no. of survivors/no. of total mice) ([4]; 100 mg/kg p.o., twice per day during 8.5 days from 4 hr. after infection): 3/10; Mean no. of survival days ([4]; 100 mg/kg p.o., twice per day during 8.5 days from 4 hr. after infection, control 5.9): 7.8 days; Survival ratio (no. of survivors/no. of total mice) ([4]; 100 mg/kg s.c., twice per day during 8.5 days from 4 hr. after infection): 5/10; Mean no. of survival days ([4]; 100 mg/kg s.c., twice per day during 8.5 days from 4 hr. after infection, control 5.8): 7.6 days; MIC ([5]; Human alphaherpesvirus 1, host cells HeLa, 1000 TCD50, 72 hr, 37° C.): 5 µg/mL; Minimum virus growth inhibition concentration (MIC) [5, 6]: 5 µg/mL

Question: What does the source list for `NC12CC3CC(CC(C3)C1)C2` [Amantadine HCl, amantadine hydrochloride, reference compound]?
Answer: Lung Lesion Score (Influenza Ao PR/8; 10 mg/kg s.c., * P<0.05 (Student's t test)): 4.3; Lung Lesion Score (Influenza Ao PR/8; 25 mg/kg s.c., * P<0.05 (Student's t test)): 4.1; Lung Lesion Score (Influenza Ao PR/8; 50 mg/kg s.c., * P<0.05 (Student's t test)): 4.0; MCC at 72 h [2]: > 50 µg/mL; MCC at 72 h [3]: > 50 µg/mL; MIC ([5]; Human alphaherpesvirus 1, 72 h): 50 µg/mL; Minimum virus growth inhibition concentration (MIC) [5, 6]: 50 µg/mL

Question: With `CN(C)CCOCC(=O)NC12CC3CC(CC(C3)C1)C2` [Tromantadine, tromantadine] as the molecule, how does the MCC at 72 h [3] read?
Answer: > 50 µg/mL

Question: And the “anti DNA viral activities” value (DNA virus)?
Answer: known to show an anti DNA viral activities

Question: What about the MIC ([5]; Human alphaherpesvirus 1, host cells KB, 1000 TCD50, 72 hr, 37° C.) of the same molecule?
Answer: 25 µg/mL (≈ 89.2 µM)
